Reference: patent US12605407B2, “Methods to induce terminal differentiation in stem cells by interfering with DNA replication, methods of inducing pancreatic differentiation, and differentiated cells obtained thereof” (priority 2018, dated 2026)

Tests used:
[1] = system: NSG mice; assay: Graft growth by luciferase reporter in vivo imaging, cyst formation and graft sections
Experimental: 8-10 weeks old male immuno-compromised mice (NOD.Cg-Prkdcscid Il2rgtm1Wj1/SzJ (NSG) from Jackson laboratories, Cat. No. 005557) were used for transplantation. For intra leg muscle transplantation, 1-2 million cells were collected and settled in tube with 50 μl Matrigel. All animal protocols were approved by the Institutional Animal Care and Use Committee in Columbia University.
A major obstacle for the therapeutic translation of stem cell products is the formation of growths, in the form of a teratoma or of a cyst. To determine growth potential of the grafted cells, growth was evaluated by monitoring the graft with a luciferase reporter using in vivo imaging. Mice were transplanted with 1-2 million APH treated cells or untreated cells. After 2 weeks of transplantation, the graft size of APH mice was small, while controls were modestly larger (FIG. 8A). […] The different growth trend of grafted cells between control and APH treated cells was evident in the bioluminescence intensity (FIG. 8C). At 22 weeks of engraftment, the size of graft in APH group was an average of 2.6-fold larger than that of 2 weeks compare to the control group which had 53.1-fold increase (FIG. 8D). Graft growth occurred in controls even in cultures with very high differentiation efficiency (greater than 60%). The increase of graft size was slower in the 3 mice transplanted with control cells with high differentiation efficiency but cystic structure still formed in three out of the three (3/3) mice (FIG. 8C, FIG. 8E).
The grafts were isolated from mice and frozen sectioned for examination. […] In control mice, the graft developed several large cystic structures and contained fewer C-peptide positive cells (FIG. 8G).

[2] = system: pancreatic progenitors and beta cells; assay: Cell cycle progression profiling by flow cytometry (Edu incubation, Hoechst DNA content, KI67); format: cell-based, human
Experimental: The beta cell clusters were dissociated using TrypLE™ Express into single cells. Cells were fixed with 4% PFA for 10 min and followed by permeabilization at −20° C. with cold methanol for 10 min. Primary antibodies were added at a dilution of 1:100 in autoMACs Rinsing Solution (Cat. No. 130-091-222, Miltenyi Biotec) containing 0.5% BSA at 4° C. for 1 hour. Secondary antibodies were added at a dilution of 1:500 at room temperature for 1 hour. The cells were filtered with BD Falcon 12×75 mm tube with cell strainer cap (Cat. No. 352235, BD) and subsequently analyzed by flow cytometer. Data were analyzed using Flowjo software. Negative controls were performed by only adding secondary antibodies.
To investigate the mechanism underlying the increased purity of stem cell-derived C-peptide positive cells induced by APH, cell proliferation, apoptosis and differentiation efficiency were examined during differentiation. The cell cycle progression was profiled at day 15, day 18, day 20 and day 27 of beta cell differentiation. In untreated cells, C-peptide positive cells started to form from day 15 (about 5%) (FIG. 2A) and reached a peak at day 20 (about 46%) (FIG. 2B). About 2% of total cells underwent proliferation during 2 hours of Edu incubation at each stage before day 20 and very few C-peptide positive cells were labeled positive for Edu (FIG. 2B). At day 27, the percentage of proliferating cells increased to about 13% and the percentage of C-peptide positive cells decreased due to proliferation of non-C-peptide cells in the clusters (FIG. 2B). When APH was added from day 15 to day 27, the number of C-peptide positive cells was increased as early as day 18, 3 days after addition of APH (FIG. 2C). At day 20, about 60% cells expressed C-peptide and the high expression of C-peptide was maintained until the day 27.
To determine the cell cycle phase at which aphidicolin arrested pancreatic progenitors and beta cells, flow cytometry combined with Hoechst staining for DNA content and EdU labeling was performed.
By the end of day 27, 30% of control cells were in cell cycle through G1 to M phase indicated by the expression of KI67 (a proliferation marker expressed in the cells within cell cycle) and amount of DNA content (FIG. 3A). […] The cell cycle gene expression in insulin expressing cells was also examined.

[3] = system: sc-beta cell clusters; assay: Static glucose stimulated C-peptide secretion; format: cell-based, human; conditions: 2 mM versus 20 mM glucose
Experimental: Krebs Ringer buffer (KRB) was prepared by addition of 129 mM NaCl, 4.8 mM KCl, 2.5 mM CaCl2), 1.2 mM MgSO4, 1 mM Na2HPO4, 1.2 mM KH2PO4, 5 mM NaHCO3, 10 mM HEPES and 0.1% BSA in deionized water and was sterilized using 0.22 μm filter. 2 mM and 20 mM glucose solution were prepared in KRB for low glucose and high glucose challenge of sc-beta cell clusters. 10-20 sc-beta cell clusters (about 5×10^5 cells) were collected from control and cells treated with cell cycle inhibitors including APH and treated conditions and pre-incubated in 500 μl low glucose solution for 1 hour. Clusters were then washed once with low glucose solution and sequentially incubated in 200 μl of low glucose and then high glucose solution for 30 minutes. 130 μl supernatant of each condition were collected. Supernatants containing secreted C-peptide stimulated by low and high glucose were processed using Mercodia Ultrasensitive Human C-peptide ELISA kit. Fold changes of C-peptide secretion before and after glucose stimulation were calculated.
Insulin positive cells were isolated based on GFP expression and the expressions of genes related to the maturation of beta cells including PDX1, NKX6.1, MAFA and insulin were evaluated (FIG. 6A). […] In addition, the C-peptide secretion was increased 2-6-fold, with an average of 3-fold, in response to high levels of glucose (FIG. 6D).

[4] = system: pancreatic progenitor cells; assay: TUNEL staining for apoptosis and absolute cell numbers; format: cell-based
Excerpt: To determine whether the increased percentage of beta cells was due to cell death of proliferating progenitors or due to increased differentiation from pancreatic progenitor cells, absolute cell numbers and cell death were quantified. Cells at day 17 and day 27 with and without APH treatment were stained for TUNEL. […] Therefore, the increased percentage of C-peptide positive cells was due to the increased differentiation, not the elimination of non-C-peptide positive cells from day 15 to day 20. After day 20, APH maintained the purity of beta cell clusters by preventing the growth of non-beta cells.

[5] = isolated grafts, frozen sections

## C[C@@]1(CO)[C@H](O)CC[C@@]2(C)[C@H]1CC[C@H]1C[C@@H]3C[C@@]12CC[C@]3(O)CO [APH, Aphidicolin]
[1]; 2 weeks of transplantation, 1-2 million APH treated cells
  graft size: small
[1]; 22 weeks of engraftment
  size of graft relative to 2 weeks, average (bioluminescence): 2.6 fold
[1]; eleven weeks later (13 weeks post transplantation)
  graft size relative to graft at 2 weeks: remained the similar size
[1]; four out of the four (4/4) mice
  cysts in mice grafted with APH treated cells: No cysts
[1]; [5]
  MAFA staining of insulin expressing beta cells in graft: positive for MAFA
  graft composition: islet like structures
[2]; day 18, 3 days after addition of APH (added day 15 to day 27)
  number of C-peptide positive cells: increased
[2]; day 20, APH added from day 15
  cells expressing C-peptide: about 60%
[2]; end of day 27
  cell cycle phase of arrest: arrested in G1 phase
  cells in cell cycle (KI67): About 5%
[2]; until day 27, APH added day 15 to day 27
  high expression of C-peptide: maintained
[2]; whole duration of differentiation, APH day 15 to day 27
  proliferating cells (Edu): Very few cells, if any
[3]
  C-peptide secretion increase in response to high levels of glucose: 2-6 fold
  C-peptide secretion increase in response to high levels of glucose, average: 3 fold
[4]; day 17 and day 27, early and late stage of APH treatment
  cell apoptosis, percentage of TUNEL positive cells: No significant increase
[4]; day 20
  number of total cells compared to control group: comparable
  percentage of C-peptide positive cells compared to control: significantly increased
